Data as given in ChEMBL document CHEMBL1123410, “Selective thromboxane synthetase inhibitors. 2. 3-(1H-imidazol-1-ylmethyl)-2-methyl-1H-indole-1-propanoic acid and analogues” (J Med Chem, 1986).

Key:
[1] = target: T1, Cytochrome P450 11B1, mitochondrial (Rattus norvegicus, UniProt P15393); experiment: Inhibition of 11 beta-hydroxylase from rat adrenal gland; type: tissue-based
T1 sequence (P15393 whole entry): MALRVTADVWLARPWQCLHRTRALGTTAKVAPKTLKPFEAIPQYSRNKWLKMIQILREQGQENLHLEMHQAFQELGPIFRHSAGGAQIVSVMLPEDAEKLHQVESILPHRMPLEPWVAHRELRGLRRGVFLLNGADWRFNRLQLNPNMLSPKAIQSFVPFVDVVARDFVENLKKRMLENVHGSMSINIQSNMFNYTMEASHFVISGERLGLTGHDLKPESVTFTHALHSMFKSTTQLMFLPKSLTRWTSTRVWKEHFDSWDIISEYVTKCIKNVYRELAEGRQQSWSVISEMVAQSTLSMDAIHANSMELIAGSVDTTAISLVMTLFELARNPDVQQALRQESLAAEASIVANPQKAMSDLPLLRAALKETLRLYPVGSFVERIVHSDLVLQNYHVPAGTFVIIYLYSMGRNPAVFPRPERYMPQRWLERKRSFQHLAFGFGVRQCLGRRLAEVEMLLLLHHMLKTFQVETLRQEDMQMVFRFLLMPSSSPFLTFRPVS

Thromboxane-A synthase = target: T2, Thromboxane-A synthase (Homo sapiens, UniProt P24557); experiment: Inhibition of TXA2 synthetase from human platelets
T2 sequence (P24557 whole entry): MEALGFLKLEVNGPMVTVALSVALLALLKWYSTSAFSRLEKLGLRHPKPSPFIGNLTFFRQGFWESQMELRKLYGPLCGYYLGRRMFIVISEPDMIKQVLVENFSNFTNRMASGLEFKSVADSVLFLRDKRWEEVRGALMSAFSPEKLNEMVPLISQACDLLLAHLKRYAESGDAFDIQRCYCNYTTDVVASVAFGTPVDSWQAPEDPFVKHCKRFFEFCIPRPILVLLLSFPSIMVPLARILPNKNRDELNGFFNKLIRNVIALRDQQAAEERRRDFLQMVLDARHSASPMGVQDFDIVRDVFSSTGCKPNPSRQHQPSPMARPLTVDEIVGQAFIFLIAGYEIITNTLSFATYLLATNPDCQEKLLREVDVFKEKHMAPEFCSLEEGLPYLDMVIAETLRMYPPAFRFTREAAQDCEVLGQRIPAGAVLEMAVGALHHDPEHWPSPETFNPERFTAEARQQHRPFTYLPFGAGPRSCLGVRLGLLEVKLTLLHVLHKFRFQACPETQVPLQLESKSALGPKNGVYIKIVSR

[2] = target: T3, Prostaglandin G/H synthase (cyclooxygenase) (Ovis aries, UniProt P05979+P79208); experiment: Inhibition of Prostaglandin G/H synthase from ram seminal vesicle microsomes
T3 sequence (P05979 whole entry): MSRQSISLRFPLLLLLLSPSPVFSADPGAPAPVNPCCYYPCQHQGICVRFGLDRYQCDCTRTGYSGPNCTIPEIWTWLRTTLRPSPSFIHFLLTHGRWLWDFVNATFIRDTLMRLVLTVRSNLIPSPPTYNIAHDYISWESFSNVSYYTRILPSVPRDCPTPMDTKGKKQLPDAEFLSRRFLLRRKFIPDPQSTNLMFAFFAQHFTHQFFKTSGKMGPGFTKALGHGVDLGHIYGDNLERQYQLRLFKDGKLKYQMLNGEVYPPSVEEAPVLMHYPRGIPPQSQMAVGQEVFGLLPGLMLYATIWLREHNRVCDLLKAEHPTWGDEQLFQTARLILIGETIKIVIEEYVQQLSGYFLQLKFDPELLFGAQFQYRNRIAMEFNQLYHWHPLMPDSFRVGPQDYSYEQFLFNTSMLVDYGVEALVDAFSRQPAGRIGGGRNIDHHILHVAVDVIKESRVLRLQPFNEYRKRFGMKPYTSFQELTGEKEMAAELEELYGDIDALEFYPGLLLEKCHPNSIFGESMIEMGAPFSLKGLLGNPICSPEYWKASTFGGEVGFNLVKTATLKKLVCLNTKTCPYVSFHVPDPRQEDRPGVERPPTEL
T3 sequence (P79208 whole entry): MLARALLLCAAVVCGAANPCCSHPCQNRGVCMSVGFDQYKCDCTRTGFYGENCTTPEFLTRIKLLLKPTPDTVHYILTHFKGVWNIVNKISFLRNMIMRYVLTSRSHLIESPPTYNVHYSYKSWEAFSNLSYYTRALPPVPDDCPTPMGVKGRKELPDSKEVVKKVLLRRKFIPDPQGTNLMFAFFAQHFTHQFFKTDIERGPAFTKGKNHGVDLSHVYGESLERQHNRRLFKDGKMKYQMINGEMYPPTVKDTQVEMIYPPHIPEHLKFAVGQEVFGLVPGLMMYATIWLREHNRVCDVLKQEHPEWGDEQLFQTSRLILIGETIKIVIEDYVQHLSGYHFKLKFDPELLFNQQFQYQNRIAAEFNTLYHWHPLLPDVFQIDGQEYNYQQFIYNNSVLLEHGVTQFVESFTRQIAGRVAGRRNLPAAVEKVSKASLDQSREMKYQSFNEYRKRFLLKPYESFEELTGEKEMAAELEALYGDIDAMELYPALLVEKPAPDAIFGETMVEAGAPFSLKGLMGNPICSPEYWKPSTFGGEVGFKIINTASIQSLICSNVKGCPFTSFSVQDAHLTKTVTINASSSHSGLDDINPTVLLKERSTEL

Row | IC50 [1] | IC50 (Thromboxane-A synthase) | IC50 [2] | Structure (SMILES)
1 |  | 4.9 nM |  | O=C(O)CCn1c(C2CC2)c(Cn2ccnc2)c2ccccc21
2 | 10000 nM | 25 nM | > 0.001 M | c1ccc2c(Cn3ccnc3)c[nH]c2c1
3 |  | 10 nM |  | O=C(O)CCn1cc(Cn2ccnc2)c2ccc(C(F)(F)F)cc21
4 |  | 12 nM |  | O=C(O)CCn1cc(Cn2ccnc2)c2cc(Br)ccc21
5 |  | 3000 nM |  | Clc1ccc2[nH]cc(Cn3ccnc3)c2c1
6 |  | 82 nM |  | CN(C)c1ccc2c(c1)c(Cn1ccnc1)cn2CCC(=O)O
7 | > 10000 nM | 19 nM | > 0.0001 M | O=C(O)CCn1cc(Cn2ccnc2)c2ccccc21
8 |  |  | > 0.0001 M | CC(C)c1[nH]c2ccccc2c1Cn1ccnc1
9 | > 100000 nM | 28 nM | > 0.0001 M | Cc1c(Cn2ccnc2)c2ccccc2n1CCC(=O)O [DAZMEGREL]

Further lines, the molecule ahead of its results:

Row | Structure (SMILES) | IC50 [1] | IC50 (Thromboxane-A synthase) | IC50 [2]
10 | CC(C)c1c(Cn2ccnc2)c2ccccc2n1CCC(=O)O | > 10000 nM | 8.2 nM | 
11 | FC(F)(F)c1ccc2c(Cn3ccnc3)c[nH]c2c1 |  | 4600 nM | 
12 | Cc1c(Cn2ccnc2)c2ccccc2n1/C=C/C(=O)O |  | 70 nM | 
13 | CCn1cc(Cn2ccnc2)c2ccccc21 | 10000 nM | 8.4 nM | > 0.0001 M
14 | O=C(O)Cn1cc(Cn2ccnc2)c2ccccc21 |  | 30 nM | > 0.0001 M
15 | Cc1ccc2c(c1)c(Cn1ccnc1)cn2CCC(=O)O |  | 42 nM | 
16 | O=C(O)CCn1cc(Cn2ccnc2)c2cc(Cl)ccc21 |  | 21 nM | 
17 | COc1ccc2c(c1)c(Cn1ccnc1)cn2CCC(=O)O |  | 43 nM | 
18 | O=C(O)c1ccc(OCCn2ccnc2)cc1 [DAZOXIBEN] | > 100000 nM |  | 
